# Measured values published in US12558367B2, “Nicotinamide riboside and derivatives thereof in intravenous formulations and methods of use thereof” (ChromaDex Inc., priority 2023, dated 2026).
# Key:
# blood NAD+ = conditions: cited from earlier work
# [1] = Energy/Fatigue Scale, randomized placebo-controlled pilot clinical study (Study 1); assay type: in vivo, human; conditions: for Mental Energy / Perceived Fatigue: possible scores 5-30; for General Energy / Motivation: possible scores 6-36; for Physical Energy: possible scores 7-42; for Emotional Energy: possible scores 8-48
# Experimental: (§1) The present randomized, double-blinded, placebo-controlled, pilot clinical study was initiated with the primary aim of investigating the safety, tolerability, and the blood NAD+-boosting efficacy of an acute, single dose of NR IV (500 mg, test), NAD+ IV (500 mg, active comparator), oral NR (500 mg, bridge), and saline IV (placebo control) in generally healthy adult participants. The study consisted of two parts; data from 37 and 16 participants in the first and second phases, respectively, were analyzed.
# (§2) This was a 2-part study. The first study was a 4-arm randomized, placebo-controlled parallel trial. The 3 IV arms were double-blinded, while the 4th arm involved oral administration making it naturally unblinded. Participants were randomized at a 10:10:10:6 ratio to intravenous placebo (saline), NAD^+, NR, or oral NR (oral). The second study was a randomized parallel design trial with two arms for the purpose of evaluating the actual differences in infusion rates in real time. Participants were randomized at a 1:1 ratio to intravenous NR or NAD^+.
# (§3) Vials of 50 mg/ml of NR or NAD+ were prepared in 10 ml of sterile water by DCA Pharmacy (Franklin, Tennessee) by prescription, for research administration only, and maintained in refrigerated conditions until use. For participants who were randomized to the test group or to the active comparator group, the NR or NAD+ was added to 500 ml of normal saline (B Braun 0.9% sodium chloride injection USP, preservative free) prior to intravenous administration. Those randomly assigned to the saline group received 500 ml of normal saline. Participants that were randomly assigned to the oral arm were provided with 500 mg of NR which was taken with water.
# (§4) To assess vital signs and subdomains on the sleep and energy scales, between-groups comparisons were assessed using analysis of covariance (ANCOVA) with baseline scores as the covariate and a Bonferroni correction. Levene's test was used to check and confirm the assumption of homogeneity of variances.
# (§5) Tables A-D below reflect mean scores for each group at days 7 and 14. An ANCOVA was used to identify statistical significant differences, using baseline scores as the covariate which helps to account for the natural variation in psychological measurements, increasing the power of the study.
# It is noted that the energy scale measures disruptions to energy levels; lower scores reflect greater levels of energy.
# [2] = Hematology (complete blood count); assay type: in vivo, human; conditions: baseline to three-hours post-infusion
# Experimental: (§6) The safety of the IV infusion was evaluated using a combination of endpoints, including tolerable infusion rate, total number of adverse effects, participant vital signs, a complete blood count (CBC), a comprehensive metabolic panel (CMP), glucose and insulin levels, and the participant's self-reported subjective experience.
# (§7) Between-groups comparisons of each outcome measured in the […] and CMP were evaluated using mixed between-within subjects ANOVA with the timepoint being the within subjects' factor and the group assignment as the between subjects factor. Mauchly's test of sphericity was used to confirm assumptions. Violations of the assumption of sphericity are addressed with the Greenhouse-Geisser correction.
# (§8) Additional analyses were conducted using GraphPad Prism (Ver. 10.0.2). Statistical significance was determined as p<0.05, with comparisons of the test articles compared to saline or between group comparisons. 2way ANOVA with Tukey's multiple comparisons test with a single pooled variance was used to determine significance in hematology, clinical chemistry, and vitals. Time in chair was analyzed for study 1 by a one-way ANOVA with multiple comparisons, study 2 was analyzed by unpaired t-test. The baseline variable of age was analyzed for differences by one way ANOVA with multiple comparisons for study.
# [3] = Clinical chemistry (comprehensive metabolic panel); assay type: in vivo, human; conditions: Study 1
# Experimental: as §6, §7, §8
# [4] = Vital signs post-intervention (Study 1); assay type: in vivo, human; conditions: single 500 mg dose, mean (SD)
# Experimental: as §1, §6, §4
# For the first study, data from 37 patients were available for intent to treat analysis; for the second study, data from 16 patients were available for intent to treat analysis.
# whole blood NAD+ = assay: NAD+ analysis of dried blood spots (DBS) by LC/MS; assay type: in vivo, human; set-up: Mean NAD: unit not given here; conditions: dried blood spot
# Experimental: Finger punctures were conducted using a lancet. Blood was then applied to the circles on the dried blood spot (DBS) card and allowed to dry for a minimum of 3 hours. […] See, for example, FIG. 3. The use of dried blood spots (DBS) allowed for the analysis of NAD+ levels based upon samples that could be prepared at the clinic or by the study participants from home. While 36 of 37 participants in study 1 utilized the DBS at all time points, not all samples were analyzable. […] However, the model was significant for the 3-hour timepoint (p=0.010; […] At 6 hours, near-significant differences were observed between the NAD+ and NR IV group (t=1.99, p=0.055), and significant differences were observed between the NR IV and saline groups (t=−2.80, p=0.009), and between the NR IV and oral NR groups (t=−2.59, p=0.015). See, Tables 3-9 below. Tables 3-9 below reflect mean/SD for each group at each of the 7 timepoints. A basic ANOVA was conducted to investigate the data.
# [5] = Patient subjective experience and adverse event monitoring; assay type: in vivo, human; conditions: intervention and follow-up period up to 14 days
# Experimental: as §6
# Adverse event monitoring began on the first day of the study and continued for 14 days (study one) or 7 days (study two). Participants were instructed to notify the research staff of any new or unusual symptoms during the trial and open-ended questions during data collection solicited unexpected side effects.
# [6] = Sleep Scale, pilot clinical study (Study 1); assay type: in vivo, human; conditions: Sleep Scale Day 14, mean score
# Experimental: as §1, §2, §3, §4, §5
# For the sleep scale, the greatest improvements were seen on the scale of sleep latency, which refers to the ability to fall asleep at night, and sleep-related cognitive effects.
# [7] = Energy/Fatigue Scale Day 7, mean score, lower = greater energy
# [8] = Energy/Fatigue Scale Day 14, mean score, lower = greater energy
smiles,measurement,setting,value
"NC(=O)c1ccc[n+]([C@@H]2O[C@H](COP(=O)([O-])O)[C@@H](O)[C@H]2O)c1 [NMN, Nicotinamide mononucleotide]",safety and tolerability,"blood NAD+; 300 mg in 100 mL saline, 5 mL/min IV, 10 healthy Japanese adults (Kimura et al.)",safe and well-tolerated
same,blood NAD+ levels,blood NAD+; intravenous NMN (Kimura et al.),elevated blood NAD+ levels at multiple timepoints relative to baseline
"NC(=O)c1ccc[n+]([C@@H]2O[C@H](CO)[C@@H](O)[C@H]2O)c1.[Cl-] [oral NR, nicotinamide riboside chloride]",Mental Energy,[1]; [7],14.90
same,Perceived Fatigue,[1]; [7],14.10
same,General Energy,[1]; [7],23.20
same,Motivation,[1]; [7],12.20
same,Physical Energy,"[1]; Energy/Fatigue Scale Day 7, mean score, lower scores = greater energy, single 500 mg dose",19.80
same,Emotional Energy,[1]; [7],32.50
same,Mental Energy,[1]; [8],15.67
same,Perceived Fatigue,[1]; [8],16.44
same,General Energy,[1]; [8],23.67
same,Motivation,[1]; [8],12.56
same,Physical Energy,[1]; [8],20.00
same,Emotional Energy,[1]; [8],32.44
same,elevations in white blood cells and neutrophils,[2],not observed
same,clinically relevant changes in comprehensive metabolic panel or CBC with differential,[3],did not display any clinically relevant changes
same,Post-intervention diastolic blood pressure,[4],71.00 (SD: 6.24) mmHg
same,Post-intervention heart rate,[4],65.78 (SD: 7.95) beats per minute
same,Post-intervention systolic blood pressure,[4],108.56 (SD: 9.08) mmHg
same,Mean NAD,whole blood NAD+; 3 Hours Post-Intervention,18.54
same,Mean NAD,whole blood NAD+; 6 Hours Post-Intervention,18.01
same,Mean NAD,whole blood NAD+; 24 Hours Post-Intervention,23.25
same,Mean NAD,whole blood NAD+; Baseline Scores,18.34
same,Mean NAD,whole blood NAD+; Immediately Post-Intervention (10 minutes after infusion),19.16
same,safety / attributable adverse events,[5],safe and well tolerated
same,Sleep Maintenance,[6]; possible scores 3-18,7.50
same,Sleep Latency,[6]; possible scores 4-24,10.00
same,Cognitive Effects,[6]; possible scores 5-30,16.36
same,Daytime Sleepiness,[6]; possible scores 5-30,15.63
same,Emotional Effects,[6]; possible scores 5-30,20.50
same,Productivity,[6]; possible scores 5-30,12.88
same,Sleep Inertia,[6]; possible scores 5-30,15.88
